Patent US6458806B1, “Aryl alkenamides derivatives as MCP-1 antagonists” (Millennium Pharmaceuticals, Inc., priority 1996, dated 2002)
Counter-ions that a name gives are not always drawn.

How the values were obtained:
MCP-1 receptor = biological target: T1, MCP-1 receptor (Homo sapiens, UniProt P41597); test: MCP-1 binding assay (125I-MCP-1, THP-1 cell membranes); settings: 0.2 nM 125I-labeled MCP-1, averages of several or two experiments, read-out: Inhibition Of MCP-1 Binding IC50
T1 construct: host or cells: THP-1 cell membranes
T1 sequence (P41597 whole entry): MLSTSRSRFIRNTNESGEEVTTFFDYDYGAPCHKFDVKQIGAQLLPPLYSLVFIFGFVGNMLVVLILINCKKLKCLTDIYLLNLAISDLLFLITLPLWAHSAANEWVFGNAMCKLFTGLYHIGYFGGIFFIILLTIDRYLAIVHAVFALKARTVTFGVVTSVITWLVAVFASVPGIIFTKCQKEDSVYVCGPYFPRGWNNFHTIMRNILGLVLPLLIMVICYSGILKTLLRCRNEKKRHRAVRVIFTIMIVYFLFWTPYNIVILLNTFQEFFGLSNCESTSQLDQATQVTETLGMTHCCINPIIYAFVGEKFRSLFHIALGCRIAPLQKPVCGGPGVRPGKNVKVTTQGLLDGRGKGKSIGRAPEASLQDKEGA
Experimental: Membranes used in the MCP-1 binding assay were prepared from THP-1 cells (human monocytic cell line source—American Type Culture Collection, Tumor Immunology Bank #202, Rockville, Md., accession no. ATCC TIB 202). Cells were harvested by centrifugation and washed twice in ice-cold PBS (phosphate-buffered saline) and the cell pellet was frozen at −80° C. in some cases. Cells were resuspended in ice-cold lysis buffer 5mM HEPES (2-(4N-,[2-hydroxyethyl] piperazin-1-yl)-N′-(2-ethanesulfonic acid), pH 7.5, 2 mM EDTA (ethylenediaminetetraacetic acid), 5 ug/ml each leupeptin, aprotinin, chymostatin (protease inhibitors), and 100 ug/ml PMSF (phenylmethane sulfonyl fluoride—also a protease inhibitor)) at a concentration of 5×10^7 cells/ml. […] Typical binding assays used 10-20 ug/well of total membrane protein as determined with a standard protein assay (e.g. BioRad, Richmond, Calif.).
For binding, 10-20 ug total membrane protein were included in the binding reaction along with 0.2 nM I^125-labeled MCP-1 (Amersham, Arlington Heights, Ill.) with or without unlabeled competitor MCP-1 (Peprotech, Rocky Hill, N.J.) (at 250-500 nM). […] Filters were dried and counted in a Beta-Plate scintillation counter using standard scintillation fluid. […]
IC50s were calculated using a non-linear 3-parameter logistic curve fit. […]

Row | SMILES | melting point [°C] | IC50 (MCP-1 receptor) [µM]
1 | O=C(/C=C/C=C/c1cc(Cl)cc(Cl)c1)NCCCN1CCCCC1 [Example 16, (2E,4E)-5-(3,5-Dichloro-phenyl)-penta-2,4-dienoic Acid (3-piperidin-1-yl-propyl)-amide] | 186 to 187 | 
2 | O=C(/C=C/C=C/c1ccccc1)NCCCN1CCCCC1 [Example 13, (2E,4E)-5-Phenyl-penta-2,4-dienoic Acid (3-piperidin-1-yl-propyl)-amide] | 111 to 115 | 
3 | COc1ccc(/C=C/C=C/C(=O)NCCCN2CCCCC2)cc1 [Example 10, (2E,4E)-5-(4-Methoxy-phenyl)-penta-2,4-dienoic Acid (3-piperidin-1-yl-propyl)-amide] | 69 to 73 | 
4 | O=C(/C=C/C=C(c1ccccc1)c1ccccc1)NCCCN1CCCCC1 [Example 22, (2E) -5,5-Diphenyl-penta-2,4-dienoic acid (3-piperidin-1-yl-propyl)-amide] | 55 to 65 | 
5 | O=C(/C=C/C=C/c1ccc2ccccc2c1)NCCCN1CCCCC1 [Example 15, (2E,4E)-5-Naphthalen-2-yl-penta-2,4-dienoic Acid (3-piperidin-1-yl-propyl)-amide] | 150 to 156 | 
6 | Cc1ccc(/C=C/C=C/C(=O)NCCCN2CCCCC2)cc1 [Example 9, (2E,4E)-5-p-Tolyl-penta-2,4-dienoic Acid (3-piperidin-1-yl-propyl)-amide] | 40 to 50 | 
7 | CC(/C=C/c1ccc(Cl)c(Cl)c1)=C\C(=O)NCCCN1CCCCC1 [Example 19, (2E,4E)-5-(3,4-Dichloro-phenyl)-3-methyl-penta-2,4-dienoic Acid (3-piperidin-1-yl-propyl)-amide] | 165 to 170 | 
8 | O=C(C=CC=Cc1ccc(Cl)c(Cl)c1)NCCCN1CCOCC1 [Example 2, 5-(3,4-Dichloro-phenyl)-penta-2,4-dienoic Acid (3-morpholin-4-yl-propyl)-amide] | 130 to 132 | 10.8
9 | O=C(/C=C/C=C/c1ccc(-c2ccccc2)cc1)NCCCN1CCCCC1 [Example 14, (2E,4E)-5-Biphenyl-4-yl-penta-2,4-dienoic Acid (3-piperidin-1-yl-propyl)-amide] | 165 to 168 | 
10 | O=C(/C=C/C=C/c1ccc(Cl)c(Cl)c1)NCCCN1CCCCC1 (as salt: HCl) [Example 1, 5-(3,4-Dichloro-phenyl)-penta-2,4-dienoic Acid (3-piperidin-1-yl-propyl)-amide-HCl] | 192 to 194 | 
11 | CC(=C/C(=O)NCCCN1CCCCC1)/C=C/c1ccc(Cl)c(Cl)c1 [Example 20, (2Z,4E)-5-(3,4-Dichloro-phenyl)-3-methyl-penta-2,4-dienoic Acid (3-piperidin-1-yl-propyl)-amide] | 50 to 60 | 
12 | O=C(/C=C/C=C/c1ccc([N+](=O)[O-])cc1)NCCCN1CCCCC1 [Example 11, (2E,4E)-5-(4-Nitro-phenyl)-penta-2,4-dienoic Acid (3-piperidin-1-yl-propyl)-amide] | 225 to 226 | 
13 | O=C(/C=C/C=C/c1ccc(Cl)cc1Cl)NCCCN1CCCCC1 [Example 17, (2E,4E)-5-(2,4-Dichloro-phenyl)-penta-2,4-dienoic Acid (3-piperidin-1-yl-propyl)-amide] | 66 to 69 | 
14 | C/C(=C\C=C\C(=O)NCCCN1CCCCC1)c1ccc(Cl)c(Cl)c1 [Example 21, (2E,4E)-5-(3,4-Dichloro-phenyl)-hexa-2,4-dienoic Acid (3-piperidin-1-yl-propyl)amide] | 65 to 70 | 
15 | O=C(/C=C/C=C/c1ccc(Cl)cc1)NCCCN1CCCCC1 [Example 12, (2E,4E)-5-(4-Chloro-phenyl)-penta-2,4-dienoic Acid (3-piperidin-1-yl-propyl)-amide] | 60 to 62 | 
